Assay results taken from PubChem BioAssay AID1963442 (Molecular Pharmacology Branch, DTP, NCI, 2024).

System: MPNST complex spheroid with HUVEC/MSC, growth, % test/control
Experiment: Anticancer human tumor MPNST cell line growth inhibition [Asc];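 note: compounds left on spheroids for seven days before reading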
Settings: for IC50: curve of first compound; for viability, T/C: stronger effect = lower value
How it was run: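 Tumor cells were grown as complex spheroids with human endothelial cells (HUVEC) and human mesenchymal stem cells as stroma. Agents were tested alone and in combination, in half-log steps down from the clinical Cmax, or from 10 microM where Cmax was unknown.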

[1] = second compound 0.03 µM, first compound 0.00316 µM
[2] = second compound 0.03 µM, first compound 0.01 µM
[3] = second compound 0.03 µM, first compound 0.0316 µM
[4] = second compound 0.03 µM, first compound 0.1 µM
[5] = second compound 0.0949 µM, first compound 0.00316 µM
[6] = second compound 0.0949 µM, first compound 0.01 µM
[7] = second compound 0.0949 µM, first compound 0.0316 µM
[8] = second compound 0.0949 µM, first compound 0.1 µM
[9] = second compound 0.3 µM, first compound 0.00316 µM
[10] = second compound 0.3 µM, first compound 0.01 µM
[11] = second compound 0.3 µM, first compound 0.0316 µM
[12] = second compound 0.3 µM, first compound 0.1 µM
[13] = second compound 0.949 µM, first compound 0.00316 µM
[14] = second compound 0.949 µM, first compound 0.01 µM
[15] = second compound 0.949 µM, first compound 0.0316 µM
[16] = second compound 0.949 µM, first compound 0.1 µM
[17] = second compound 3 µM, first compound 0.00316 µM
[18] = second compound 3 µM, first compound 0.01 µM
[19] = second compound 3 µM, first compound 0.0316 µM
[20] = second compound 3 µM, first compound 0.1 µM

SMILES: COc1c(OCCCN2CCOCC2)ccc2c3n(c(=NC(=O)c4cnc(N)nc4)nc12)CCN3 + CCN1C(C(=O)NC23CCC(C(=O)O)(CC2)CC3)C(c2cccc(Cl)c2F)C2(C(=O)Nc3cc(Cl)ccc32)C12CCCCC2
- IC50 (second compound 0.03 µM): 25.4 nM
- IC50 (second compound 0.0949 µM): 29.7 nM
- IC50 (second compound 0.3 µM): 38.4 nM
- IC50 (second compound 0.949 µM): 27.2 nM
- IC50 (second compound 3 µM): 20.9 nM
- viability, T/C [1]: 66.2%
- viability, T/C [2]: 58.8%
- viability, T/C [3]: 47%
- viability, T/C [4]: 37.1%
- viability, T/C (second compound 0.03 µM, first compound 0.316 µM): 25.9%
- viability, T/C (second compound 0.03 µM, first compound 1 µM): 14.6%
- viability, T/C [5]: 75.6%
- viability, T/C [6]: 58.2%
- viability, T/C [7]: 51.5%
- viability, T/C [8]: 36.5%
- viability, T/C (second compound 0.0949 µM, first compound 0.316 µM): 30.3%
- viability, T/C (second compound 0.0949 µM, first compound 1 µM): 17.4%
- viability, T/C [9]: 77.3%
- viability, T/C [10]: 64.1%
- viability, T/C [11]: 55%
- viability, T/C [12]: 36.5%
- viability, T/C (second compound 0.3 µM, first compound 0.316 µM): 24.4%
- viability, T/C (second compound 0.3 µM, first compound 1 µM): 17.4%
- viability, T/C [13]: 81.3%
- viability, T/C [14]: 60.4%
- viability, T/C [15]: 52.2%
- viability, T/C [16]: 33.2%
- viability, T/C (second compound 0.949 µM, first compound 0.316 µM): 21%
- viability, T/C (second compound 0.949 µM, first compound 1 µM): 17.3%
- viability, T/C [17]: 74%
- viability, T/C [18]: 62%
- viability, T/C [19]: 43%
- viability, T/C [20]: 28%
- viability, T/C (second compound 3 µM, first compound 0.316 µM): 19.1%
- viability, T/C (second compound 3 µM, first compound 1 µM): 15.6%

SMILES: NC(=O)C(=Cn1cnc(-c2cc(C(F)(F)F)cc(C(F)(F)F)c2)n1)c1cncnc1 + CCN1C(C(=O)NC23CCC(C(=O)O)(CC2)CC3)C(c2cccc(Cl)c2F)C2(C(=O)Nc3cc(Cl)ccc32)C12CCCCC2
- IC50 (second compound 0.03 µM): 172 nM
- IC50 (second compound 0.0949 µM): 139 nM
- IC50 (second compound 0.3 µM): 198 nM
- IC50 (second compound 0.949 µM): 88 nM
- IC50 (second compound 3 µM): 80.8 nM
- viability, T/C (second compound 0.03 µM, first compound 0.000949 µM): 64.2%
- viability, T/C (second compound 0.03 µM, first compound 0.003 µM): 78.6%
- viability, T/C (second compound 0.03 µM, first compound 0.00949 µM): 66.9%
- viability, T/C (second compound 0.03 µM, first compound 0.03 µM): 64%
- viability, T/C (second compound 0.03 µM, first compound 0.0949 µM): 56.2%
- viability, T/C (second compound 0.03 µM, first compound 0.3 µM): 43.7%
- viability, T/C (second compound 0.0949 µM, first compound 0.000949 µM): 75%
- viability, T/C (second compound 0.0949 µM, first compound 0.003 µM): 90.7%
- viability, T/C (second compound 0.0949 µM, first compound 0.00949 µM): 79.7%
- viability, T/C (second compound 0.0949 µM, first compound 0.03 µM): 71%
- viability, T/C (second compound 0.0949 µM, first compound 0.0949 µM): 55.5%
- viability, T/C (second compound 0.0949 µM, first compound 0.3 µM): 40.1%
- viability, T/C (second compound 0.3 µM, first compound 0.000949 µM): 90.9%
- viability, T/C (second compound 0.3 µM, first compound 0.003 µM): 99.1%
- viability, T/C (second compound 0.3 µM, first compound 0.00949 µM): 90.9%
- viability, T/C (second compound 0.3 µM, first compound 0.03 µM): 79.3%
- viability, T/C (second compound 0.3 µM, first compound 0.0949 µM): 64.8%
- viability, T/C (second compound 0.3 µM, first compound 0.3 µM): 42%
- viability, T/C (second compound 0.949 µM, first compound 0.000949 µM): 95.2%
- viability, T/C (second compound 0.949 µM, first compound 0.003 µM): 97%
- viability, T/C (second compound 0.949 µM, first compound 0.00949 µM): 89.3%
- viability, T/C (second compound 0.949 µM, first compound 0.03 µM): 71.6%
- viability, T/C (second compound 0.949 µM, first compound 0.0949 µM): 47.8%
- viability, T/C (second compound 0.949 µM, first compound 0.3 µM): 42.5%
- viability, T/C (second compound 3 µM, first compound 0.000949 µM): 93.9%
- viability, T/C (second compound 3 µM, first compound 0.003 µM): 77.8%
- viability, T/C (second compound 3 µM, first compound 0.00949 µM): 66.1%
- viability, T/C (second compound 3 µM, first compound 0.03 µM): 56%
- viability, T/C (second compound 3 µM, first compound 0.0949 µM): 50.7%
- viability, T/C (second compound 3 µM, first compound 0.3 µM): 42.6%

SMILES: NC1CCC(NC2CC2c2ccccc2)CC1 (stereo not given) + CCN1C(C(=O)NC23CCC(C(=O)O)(CC2)CC3)C(c2cccc(Cl)c2F)C2(C(=O)Nc3cc(Cl)ccc32)C12CCCCC2
- IC50 (second compound 0.03 µM): > 100 nM
- IC50 (second compound 0.0949 µM): > 100 nM
- IC50 (second compound 0.3 µM): > 100 nM
- IC50 (second compound 0.949 µM): > 100 nM
- IC50 (second compound 3 µM): > 100 nM
- viability, T/C (second compound 0.03 µM, first compound 0.000316 µM): 79.1%
- viability, T/C (second compound 0.03 µM, first compound 0.001 µM): 72.2%
- viability, T/C [1]: 67.4%
- viability, T/C [2]: 74.8%
- viability, T/C [3]: 87%
- viability, T/C [4]: 82.7%
- viability, T/C (second compound 0.0949 µM, first compound 0.000316 µM): 98.7%
- viability, T/C (second compound 0.0949 µM, first compound 0.001 µM): 87.6%
- viability, T/C [5]: 92.6%
- viability, T/C [6]: 91.5%
- viability, T/C [7]: 63.7%
- viability, T/C [8]: 82.7%
- viability, T/C (second compound 0.3 µM, first compound 0.000316 µM): 81.7%
- viability, T/C (second compound 0.3 µM, first compound 0.001 µM): 85.7%
- viability, T/C [9]: 83.8%
- viability, T/C [10]: 90.8%
- viability, T/C [11]: 69.5%
- viability, T/C [12]: 75%
- viability, T/C (second compound 0.949 µM, first compound 0.000316 µM): 87.9%
- viability, T/C (second compound 0.949 µM, first compound 0.001 µM): 87.7%
- viability, T/C [13]: 98%
- viability, T/C [14]: 74.2%
- viability, T/C [15]: 72.5%
- viability, T/C [16]: 66.7%
- viability, T/C (second compound 3 µM, first compound 0.000316 µM): 83.9%
- viability, T/C (second compound 3 µM, first compound 0.001 µM): 81.4%
- viability, T/C [17]: 60.3%
- viability, T/C [18]: 59.8%
- viability, T/C [19]: 68.9%
- viability, T/C [20]: 65.8%
